# Results: ChEMBL document CHEMBL3886209, “Benzimidazole-imidazole derivatives” (2016)
# What was measured:
# [1] = biological target: Nonstructural protein 5A (Hepatitis C virus, UniProt Q5L478); experiment: (§1) Transient Replicon Assay: In a transient set-up, a Huh-7 lunet hepatoma cell line was transiently transfected with an autonomously replicating RNA encoding a bi-cistronic expression construct. This construct comprises a firefly luciferase reporter gene preceding the NS3-NS5B subgenomic region of HCV (genotype 1a H77 or 1b Con1). Translation of the HCV subgenomic region is mediated by an internal ribosome entry site of encephalomyocarditis virus. The construct is furthermore flanked by 5' and 3' untranslated regions of HCV (genotype 1a H77 or 1b Con 1, respectively), which allow for replication of the RNA. In addition to the wild-type constructs, site-directed mutations were introduced into the transient HCV genotype 1b replicon in the gene encoding for the non-structural protein 5A (NS5A). More precisely, amino acid residues 28, 30, 31 and 93 in NS5A were independently altered. Cells were plated in 384 well plates in the presence of test and control compounds, which were added in various concentrations. Following an incubation of two days, replication of the HCV subgenomic replicon RNA was measured by assaying luciferase activity (using standard luciferase assay substrates and reagents and a Perkin Elmer ViewLux™ ultraHTS microplate imager). HCV subgenomic replicon containing cells in the control cultures have high luciferase expression in the absence of any inhibitor. The inhibitory activity of the compound was monitored, enabling a dose-response curve for each test compound.; format: cell-based
# [2] = Stable Replicon Assay: The assay utilized the stably transfected cell line Huh-7 luc/neo (hereafter referred to as Huh-Luc). This cell line harbors an RNA encoding a bicistronic expression construct comprising the wild type NS3-NS5B regions of HCV type 1b translated from an Internal Ribosome Entry Site (IRES) from encephalomyocarditis virus (EMCV), preceded by a reporter portion (FfL-luciferase), and a selectable marker portion (neoR, neomycine phosphotransferase). The construct is flanked by 5' and 3' NTRs (non-translated regions) from HCV type 1b. Continued culture of the replicon cells in the presence of G418 (neoR) is dependent on the replication of the HCV RNA. The stably transfected replicon cells that replicate HCV RNA autonomously and to high levels, encoding inter alia luciferase, were used for screening the antiviral compounds. The replicon cells were plated in 384 well plates in the presence of the test and control compounds which were added in various concentrations. Following an incubation of three days, HCV replication was measured by assaying luciferase activity (using standard luciferase assay substrates and reagents and a Perkin Elmer ViewLux™ ultraHTS microplate imager). Replicon cells in the control cultures have high luciferase expression in the absence of any inhibitor. The inhibitory activity of the compound was monitored on the Huh-Luc cells, enabling a dose-response curve for each test compound.
# [3] = as §1; format: cell-based
SMILES,EC50 [1] [pM],EC50 [2] [pM],EC50 [3] [pM]
COC(=O)N[C@H](C(=O)N1CCC[C@H]1c1ncc(-c2ccc3cc(-c4ccc5nc([C@@H]6CCCN6C(=O)[C@@H](NC(=O)OC)[C@@H](C)OC)[nH]c5c4)ccc3c2)[nH]1)C(C)C,< 17,,
CC[C@@H](C)[C@H](NC(=O)OC)C(=O)N1CCC[C@H]1c1ncc(-c2ccc3cc(-c4ccc5nc([C@@H]6CCCN6C(=O)[C@@H](NC(=O)OC)[C@H](C)CC)[nH]c5c4)ccc3c2)[nH]1,,3,2
COC(=O)N[C@H](C(=O)N1CCC[C@H]1c1nc2ccc(-c3ccc4cc(-c5cnc([C@@H]6CCCN6C(=O)[C@@H](NC(=O)OC)[C@@H](C)OC)[nH]5)ccc4c3)cc2[nH]1)C(C)C,,6,
CC[C@H](C)[C@H](NC(=O)OC)C(=O)N1CCC[C@H]1c1nc2ccc(-c3ccc4cc(-c5cnc([C@@H]6CCCN6C(=O)[C@@H](NC(=O)OC)C(C)C)[nH]5)ccc4c3)cc2[nH]1,< 13,,
CC[C@H](C)[C@H](NC(=O)OC)C(=O)N1CCC[C@H]1c1nc2cc(-c3ccc4cc(-c5cnc([C@@H]6CCCN6C(=O)[C@@H](NC(=O)OC)[C@@H](C)OC)[nH]5)ccc4c3)ccc2[nH]1,,3,4
